Results: the NIST ThermoML archive (doi:10.1021/je100598x)

Experiment: cn = amount concentration of the nth substance listed, in mol/dm3
Conditions: 101 kPa, Liquid, Direct current cell with electrodes

CCCCCCCCCCCC[N+](CC)(CC)CC.[Br-] [dodecyltriethylammonium bromide] + O
electrical conductivity [S/m]
Conditions | 288.15 K | 293.15 K | 298.15 K | 303.15 K | 308.15 K | 313.15 K | 318.15 K
c1 = 0.001316 | 0.0105 | 0.0119 | 0.0132 | 0.0146 | 0.01605 | 0.0176 | 0.019
c1 = 0.002597 | 0.02 | 0.0226 | 0.0252 | 0.028 | 0.0306 | 0.0335 | 0.0363
c1 = 0.003846 | 0.0289 | 0.0327 | 0.0365 | 0.0406 | 0.0443 | 0.0486 | 0.0526
c1 = 0.005063 | 0.0374 | 0.0423 | 0.0473 | 0.0526 | 0.0573 | 0.0631 | 0.0682
c1 = 0.00625 | 0.0456 | 0.0516 | 0.0576 | 0.0641 | 0.0698 | 0.0768 | 0.0831
c1 = 0.007407 | 0.053 | 0.0604 | 0.0676 | 0.0752 | 0.0819 | 0.09 | 0.0976
c1 = 0.008536 | 0.0609 | 0.0689 | 0.0771 | 0.0859 | 0.0934 | 0.1028 | 0.1114
c1 = 0.009638 | 0.0681 | 0.077 | 0.0862 | 0.0962 | 0.1047 | 0.115 | 0.1247
c1 = 0.01071 | 0.0751 | 0.085 | 0.095 | 0.106 | 0.116 | 0.127 | 0.137
c1 = 0.01177 | 0.0818 | 0.0926 | 0.1035 | 0.115 | 0.126 | 0.139 | 0.15
c1 = 0.01279 | 0.0884 | 0.1 | 0.1116 | 0.1245 | 0.136 | 0.149 | 0.1607
c1 = 0.01379 | 0.0946 | 0.107 | 0.119 | 0.1325 | 0.1445 | 0.159 | 0.173
c1 = 0.01477 | 0.0997 | 0.1119 | 0.1243 | 0.138 | 0.1513 | 0.167 | 0.1822
c1 = 0.01573 | 0.1033 | 0.115 | 0.128 | 0.1426 | 0.156 | 0.1726 | 0.189
c1 = 0.01667 | 0.106 | 0.118 | 0.1315 | 0.146 | 0.1607 | 0.178 | 0.196
c1 = 0.01758 | 0.108 | 0.121 | 0.1345 | 0.15 | 0.165 | 0.1821 | 0.2
c1 = 0.01848 | 0.1105 | 0.1235 | 0.137 | 0.1528 | 0.169 | 0.186 | 0.206
c1 = 0.01936 | 0.1125 | 0.126 | 0.1401 | 0.156 | 0.1721 | 0.1911 | 0.211
c1 = 0.02021 | 0.1144 | 0.128 | 0.1427 | 0.159 | 0.175 | 0.195 | 0.215
c1 = 0.02105 | 0.116 | 0.1303 | 0.145 | 0.1616 | 0.179 | 0.199 | 0.22
c1 = 0.02188 | 0.118 | 0.1324 | 0.148 | 0.1645 | 0.1821 | 0.202 | 0.224
c1 = 0.02268 | 0.12 | 0.1344 | 0.15 | 0.167 | 0.185 | 0.206 | 0.228
c1 = 0.02347 | 0.1215 | 0.136 | 0.1524 | 0.17 | 0.189 | 0.209 | 0.232
c1 = 0.02424 | 0.1231 | 0.138 | 0.1546 | 0.1723 | 0.1916 | 0.213 | 0.236
c1 = 0.025 | 0.125 | 0.1403 | 0.157 | 0.175 | 0.1946 | 0.216 | 0.24
